Data published in article PMC7407272, “Induction of Lysosome Membrane Permeabilization as a Therapeutic Strategy to Target Pancreatic Cancer Stem Cells” (Cancers, 2020).
Like-named read-outs stand apart in the source and are kept apart here.

Experiments:
HASPIN = molecular target: T1, HASPIN (Homo sapiens, UniProt Q8TF76); experiment: HASPIN ADP GLO kinase assay; format: biochemical; parameters: purchased ProQinase, Freiburg, Germany; details: 150 μM ATP
T1 sequence (Q8TF76 1-798): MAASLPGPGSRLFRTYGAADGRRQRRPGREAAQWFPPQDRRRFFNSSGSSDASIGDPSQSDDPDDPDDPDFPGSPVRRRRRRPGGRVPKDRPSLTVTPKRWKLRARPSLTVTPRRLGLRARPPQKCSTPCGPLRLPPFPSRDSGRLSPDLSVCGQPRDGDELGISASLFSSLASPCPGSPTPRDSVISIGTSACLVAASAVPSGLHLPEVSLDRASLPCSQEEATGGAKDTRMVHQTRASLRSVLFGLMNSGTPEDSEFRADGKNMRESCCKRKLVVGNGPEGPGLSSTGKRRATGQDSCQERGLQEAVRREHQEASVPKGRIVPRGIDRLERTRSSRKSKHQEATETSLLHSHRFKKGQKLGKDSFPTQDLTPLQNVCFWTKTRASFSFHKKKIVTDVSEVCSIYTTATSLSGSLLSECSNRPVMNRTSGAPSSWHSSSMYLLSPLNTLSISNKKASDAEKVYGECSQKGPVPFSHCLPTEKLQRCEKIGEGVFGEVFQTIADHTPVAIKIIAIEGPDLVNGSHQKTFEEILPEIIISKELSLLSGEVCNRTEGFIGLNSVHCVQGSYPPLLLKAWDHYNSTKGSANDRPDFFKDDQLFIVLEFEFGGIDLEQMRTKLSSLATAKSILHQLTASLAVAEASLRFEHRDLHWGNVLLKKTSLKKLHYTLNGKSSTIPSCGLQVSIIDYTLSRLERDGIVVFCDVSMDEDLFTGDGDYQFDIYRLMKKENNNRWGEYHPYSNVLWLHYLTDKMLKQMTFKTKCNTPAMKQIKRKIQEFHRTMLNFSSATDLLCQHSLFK
Experimental: (§1) PIM1/3 kinase activities were measured as previously described in Martínez-Gonzalez et al.. HASPIN activity was measured using the commercial ADP GLO assay (Promega), a homogeneous assay measuring ADP accumulation, as a universal product of kinase activity. The assay was done following general manufacturer recommendations and adapting protein to optimal conditions.

[1] = tested on: mouse embryonic stem cells (mESCs); experiment: mESC viability (MTS) screen and dose response; format: cell-based; details: Mus musculus, Embryonic stem cell, 30 h
Experimental: (§2) Mouse embryonic stem cells were cultured in Dulbecco’s Modified Eagle Medium (DMEM) containing 15% Fetal bovine serum (FBS), non-essential amino acids (NEAA), 2-mercaptoethanol, and Leukemia inhibitory factor (LIF) and passaged on gelatinized plates under standard conditions.
(§3) Murine embryonic stem cells (mESCs) were plated at 20,000 cells per well in gelatinized 96 well plates. Compounds from the 640 compound ETP library were added by a Beckman FX 96 tip to achieve a final concentration of 5 µM in each well, and each compound was tested in duplicate. Cells were treated for a total of 30 h prior to assessing cell viability using CellTiter 96® AQueous One Solution Cell Proliferation Assay (MTS) assay according to manufacturer’s instructions (G3582, Promega, Madison, WI, USA). Dose response curves were carried out on mESCs under the same conditions using indicated compounds. To test the viability of CSCs, 10,000 PDAC cells were plated in spheroid conditions and immediately treated with indicated compounds and concentrations for the duration of the sphere formation assay. For adherent non-CSCs, 20,000 cells were plated in wells of standard tissue culture-treated plates (Corning, Corning, NY, USA) and treated the following day with indicated compounds and concentrations. For re-plated spheres (Figure S1B), 7-day-old spheres were filtered using a 40 µM filter (Fisher Scientific, Hampton, NH, USA), washed once with 1× PBS, and incubated with trypsin 0.05% EDTA at 37 °C (Thermo Fisher Scientific, Waltham, MA, USA) to achieve a single cell suspension (approximately 10–30 min, depending on the PDAC culture). Trypsinized cells were counted and 20,000 cells were plated in wells of standard tissue culture-treated plates (Corning) and treated the following day with indicated compounds and concentrations.

[2] = mESC viability (MTS) screen and dose response; format: cell-based, mouse; details: mouse, mouse embryonic stem cells (mESCs), 5 µM, MTS
Experimental: as §2, §3

PIM1 = PIM1 (Homo sapiens, UniProt P11309); experiment: PIM kinase activity assay; format: biochemical
Experimental: as §1

PIM3 = PIM3 (Homo sapiens, UniProt Q86V86); experiment: PIM kinase activity assay; format: biochemical
Experimental: as §1

PKAC-alpha = molecular target: T2, PKAC-alpha (Homo sapiens, UniProt P17612); experiment: KINOMEscan; format: binding; details: read-out: % Ctrl
T2 construct: purchased DiscoveRx KINOMEscan

PDPK1 = molecular target: T3, PDPK1 (Homo sapiens, UniProt O15530); experiment: KINOMEscan; format: binding; details: read-out: % Ctrl
T3 construct: purchased DiscoveRx KINOMEscan

CAMK1G = molecular target: T4, CAMK1G (Homo sapiens, UniProt Q96NX5); experiment: KINOMEscan; format: binding; details: read-out: % Ctrl
T4 construct: purchased DiscoveRx KINOMEscan

PDAC3 cultures = experiment: Sphere formation assay; format: cell-based, human; details: 1.25 or 2.5 µM
Excerpt: (§4) Pancreatic CSC spheres were generated as previously described in ultra-low attachment plates (Corning) using CSC media: serum-free DMEM/F12 medium (1:1; #21331-020; Gibco, Waltham, MA, USA), supplemented with Pen/Strep (1:100; #1500-063; Gibco, Waltham, MA, USA), Fungizone (1:250; #15290-018; Gibco), L-Glutamine (1:100; #25030-024; Gibco, Waltham, MA, USA), B-27 (1:50; #17504-044; Gibco, Waltham, MA, USA) and basic fibroblast growth factor (FGF-b) (1:5000; Gibco, Waltham, MA, USA). All cell culture was carried out at 37 °C in a 5% CO2 humidified incubator. To quantify spheres of > 40 μm, 1 mL of sample volume was analyzed with a CASY® Cell Counter (Roche Applied Sciences, Mannheim, Germany). The CASY® Cell Counter measuring principle is based on a capillary particle counter with pulse area analysis, that permits the determination of cell count, cell concentration, cell volume (peak), and average cell diameter, specifically diameters of 40–80 μm, 80–120 μm and >120 μm.

PDAC1 cultures = experiment: Sphere formation assay; format: cell-based, human; details: 1.25 or 2.5 µM
Excerpt: as §4

MET(Y1235D) = molecular target: T5, MET(Y1235D) (Homo sapiens, UniProt P08581, Y1235D); experiment: KINOMEscan; format: binding; details: read-out: % Ctrl
T5 construct: purchased DiscoveRx KINOMEscan

TTK = molecular target: T6, TTK (Homo sapiens, UniProt P33981); experiment: KINOMEscan; format: binding; details: read-out: % Ctrl
T6 construct: purchased DiscoveRx KINOMEscan

EGFR(G719C) = molecular target: T7, EGFR(G719C) (Homo sapiens, UniProt P00533, G719C); experiment: KINOMEscan; format: binding; details: read-out: % Ctrl
T7 construct: purchased DiscoveRx KINOMEscan

IRAK3 = molecular target: T8, IRAK3 (Homo sapiens, UniProt Q9Y616); experiment: KINOMEscan; format: binding; details: read-out: % Ctrl
T8 construct: purchased DiscoveRx KINOMEscan
T8 sequence (Q9Y616 whole entry): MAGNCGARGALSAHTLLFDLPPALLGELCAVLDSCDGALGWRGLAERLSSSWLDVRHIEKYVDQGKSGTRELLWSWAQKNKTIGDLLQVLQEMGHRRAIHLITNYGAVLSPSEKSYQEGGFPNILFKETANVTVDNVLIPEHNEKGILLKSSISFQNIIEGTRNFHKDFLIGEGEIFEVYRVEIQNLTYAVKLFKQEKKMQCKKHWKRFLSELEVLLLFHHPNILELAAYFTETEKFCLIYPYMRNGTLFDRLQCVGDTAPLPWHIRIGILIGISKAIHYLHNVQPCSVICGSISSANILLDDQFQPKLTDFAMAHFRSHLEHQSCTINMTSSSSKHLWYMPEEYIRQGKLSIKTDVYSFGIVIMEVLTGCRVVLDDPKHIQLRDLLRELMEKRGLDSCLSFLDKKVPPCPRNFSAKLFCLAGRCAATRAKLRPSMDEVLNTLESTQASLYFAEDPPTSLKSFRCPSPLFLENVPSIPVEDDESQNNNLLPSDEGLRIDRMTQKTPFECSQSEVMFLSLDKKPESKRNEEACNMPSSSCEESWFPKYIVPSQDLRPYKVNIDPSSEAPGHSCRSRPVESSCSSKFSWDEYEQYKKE

Sequence of PIM1 (P11309 whole entry): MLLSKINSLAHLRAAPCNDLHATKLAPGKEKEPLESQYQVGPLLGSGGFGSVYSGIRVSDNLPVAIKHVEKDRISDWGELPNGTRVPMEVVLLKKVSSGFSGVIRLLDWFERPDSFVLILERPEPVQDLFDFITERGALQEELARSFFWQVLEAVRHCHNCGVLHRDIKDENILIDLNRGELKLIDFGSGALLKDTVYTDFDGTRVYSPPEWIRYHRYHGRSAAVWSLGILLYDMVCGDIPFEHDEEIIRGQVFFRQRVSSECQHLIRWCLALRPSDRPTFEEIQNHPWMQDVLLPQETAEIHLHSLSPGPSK
T4 sequence (Q96NX5 whole entry): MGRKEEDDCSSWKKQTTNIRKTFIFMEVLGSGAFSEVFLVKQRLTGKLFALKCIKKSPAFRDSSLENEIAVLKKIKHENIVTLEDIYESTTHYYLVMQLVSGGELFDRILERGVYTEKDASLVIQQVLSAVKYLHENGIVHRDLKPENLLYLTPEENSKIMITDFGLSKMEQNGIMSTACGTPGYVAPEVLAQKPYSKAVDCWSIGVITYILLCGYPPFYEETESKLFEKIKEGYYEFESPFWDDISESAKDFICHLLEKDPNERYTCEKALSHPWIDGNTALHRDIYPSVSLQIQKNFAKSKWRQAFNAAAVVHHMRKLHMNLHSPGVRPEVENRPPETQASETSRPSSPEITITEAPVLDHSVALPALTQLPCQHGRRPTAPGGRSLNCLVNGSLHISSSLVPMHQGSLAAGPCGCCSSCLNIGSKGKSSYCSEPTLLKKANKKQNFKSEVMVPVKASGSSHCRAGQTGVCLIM
T3 sequence (O15530 whole entry): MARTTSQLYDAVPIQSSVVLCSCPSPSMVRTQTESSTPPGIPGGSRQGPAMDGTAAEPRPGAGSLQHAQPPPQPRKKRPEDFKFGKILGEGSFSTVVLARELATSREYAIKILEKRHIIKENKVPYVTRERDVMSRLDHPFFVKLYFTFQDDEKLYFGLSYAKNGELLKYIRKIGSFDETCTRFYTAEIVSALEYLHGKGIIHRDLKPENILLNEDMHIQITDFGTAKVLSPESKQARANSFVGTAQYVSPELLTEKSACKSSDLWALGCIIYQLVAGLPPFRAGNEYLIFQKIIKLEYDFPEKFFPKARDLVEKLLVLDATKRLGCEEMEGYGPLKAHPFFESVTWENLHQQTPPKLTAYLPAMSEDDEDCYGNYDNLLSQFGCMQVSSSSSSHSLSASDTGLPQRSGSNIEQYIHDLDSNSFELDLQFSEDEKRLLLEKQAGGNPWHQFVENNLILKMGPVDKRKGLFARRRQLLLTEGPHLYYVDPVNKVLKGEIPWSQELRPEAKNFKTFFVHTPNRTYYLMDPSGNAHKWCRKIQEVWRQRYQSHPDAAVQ
T7 sequence (P00533 25-1210 G719C): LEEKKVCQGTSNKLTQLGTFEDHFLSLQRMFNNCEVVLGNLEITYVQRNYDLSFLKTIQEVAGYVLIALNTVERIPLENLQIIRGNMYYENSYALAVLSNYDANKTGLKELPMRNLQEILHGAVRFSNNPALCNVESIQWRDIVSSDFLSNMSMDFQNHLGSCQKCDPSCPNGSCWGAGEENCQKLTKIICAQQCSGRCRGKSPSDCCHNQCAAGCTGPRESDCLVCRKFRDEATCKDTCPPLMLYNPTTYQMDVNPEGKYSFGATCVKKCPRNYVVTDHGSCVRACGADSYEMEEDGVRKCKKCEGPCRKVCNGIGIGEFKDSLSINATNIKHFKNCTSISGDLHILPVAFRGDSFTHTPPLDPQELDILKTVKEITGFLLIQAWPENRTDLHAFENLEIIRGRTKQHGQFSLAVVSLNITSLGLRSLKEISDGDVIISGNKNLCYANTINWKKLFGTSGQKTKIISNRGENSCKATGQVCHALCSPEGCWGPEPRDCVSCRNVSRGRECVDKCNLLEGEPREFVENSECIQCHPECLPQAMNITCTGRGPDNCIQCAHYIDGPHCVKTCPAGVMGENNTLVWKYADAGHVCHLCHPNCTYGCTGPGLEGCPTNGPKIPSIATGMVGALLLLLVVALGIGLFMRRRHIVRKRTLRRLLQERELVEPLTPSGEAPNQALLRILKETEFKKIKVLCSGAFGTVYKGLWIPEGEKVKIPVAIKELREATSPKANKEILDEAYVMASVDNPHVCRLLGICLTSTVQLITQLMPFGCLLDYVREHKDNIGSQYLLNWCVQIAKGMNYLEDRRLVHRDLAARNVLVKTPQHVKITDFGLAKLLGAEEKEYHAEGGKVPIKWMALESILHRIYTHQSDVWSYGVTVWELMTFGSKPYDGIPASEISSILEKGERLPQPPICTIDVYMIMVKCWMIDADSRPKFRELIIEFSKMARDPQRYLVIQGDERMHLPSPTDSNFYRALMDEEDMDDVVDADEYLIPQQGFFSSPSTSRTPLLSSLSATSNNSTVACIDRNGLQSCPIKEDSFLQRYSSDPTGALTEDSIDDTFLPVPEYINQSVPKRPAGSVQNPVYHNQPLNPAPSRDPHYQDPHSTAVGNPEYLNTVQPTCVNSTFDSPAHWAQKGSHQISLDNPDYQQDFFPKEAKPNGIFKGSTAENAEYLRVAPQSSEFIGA
T6 sequence (P33981 whole entry): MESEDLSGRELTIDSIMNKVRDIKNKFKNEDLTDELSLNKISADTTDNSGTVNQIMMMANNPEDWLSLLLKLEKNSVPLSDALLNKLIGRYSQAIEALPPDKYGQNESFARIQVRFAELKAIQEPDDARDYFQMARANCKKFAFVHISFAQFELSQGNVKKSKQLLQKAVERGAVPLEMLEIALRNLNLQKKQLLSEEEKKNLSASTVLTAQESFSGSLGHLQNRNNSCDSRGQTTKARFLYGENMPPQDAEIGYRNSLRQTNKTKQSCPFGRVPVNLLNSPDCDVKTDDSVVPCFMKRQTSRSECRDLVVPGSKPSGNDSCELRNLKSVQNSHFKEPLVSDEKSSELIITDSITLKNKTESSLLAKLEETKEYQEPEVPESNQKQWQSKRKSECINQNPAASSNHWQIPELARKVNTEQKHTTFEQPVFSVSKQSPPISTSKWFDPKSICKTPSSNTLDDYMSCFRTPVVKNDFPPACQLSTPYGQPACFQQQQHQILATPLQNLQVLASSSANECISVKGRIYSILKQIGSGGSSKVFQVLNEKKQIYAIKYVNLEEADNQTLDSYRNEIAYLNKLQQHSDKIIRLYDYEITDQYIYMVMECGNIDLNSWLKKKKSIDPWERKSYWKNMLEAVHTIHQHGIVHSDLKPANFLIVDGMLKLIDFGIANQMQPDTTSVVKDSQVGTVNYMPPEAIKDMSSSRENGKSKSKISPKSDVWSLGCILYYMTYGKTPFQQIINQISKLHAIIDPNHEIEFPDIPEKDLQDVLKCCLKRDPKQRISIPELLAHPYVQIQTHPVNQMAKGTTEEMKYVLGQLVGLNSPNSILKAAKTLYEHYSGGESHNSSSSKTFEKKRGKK

Compound: COc1nc2ccc(NCC3CCN(C)CC3)nn2c1C(=O)Nc1cccc(OC(F)(F)F)c1 [Cpd 1]
- IC50 (HASPIN): > 10000 nM
- EC50 [1]: 1330 nM
- viability at 30 h, 5 µM [2]: 8%
- IC50 (PIM1): > 10000 nM
- IC50 (PIM3): > 10000 nM

Compound: CN1CCC(CNc2ccc3ncc(C(=O)Nc4cccc(OC(F)(F)F)c4)n3n2)CC1 [Cpd 2]
- remaining binding at 1 µM (PKAC-alpha): 99%
- IC50 (HASPIN; kinase orthogonal assay): 915 nM
- remaining binding at 1 µM (PDPK1): 100%
- EC50 [1]: 2050 nM
- viability at 30 h, 5 µM [2]: 19%
- remaining binding at 1 µM (CAMK1G): 92%
- sphere forming capacity (PDAC3 cultures): decreased sphere forming capacity
- sphere forming capacity (PDAC1 cultures): decreased sphere forming capacity
- IC50 (PIM1; kinase orthogonal assay): 98 nM
- IC50 (PIM3; kinase orthogonal assay): 129 nM
- remaining binding at 1 µM (MET(Y1235D)): 93%
- remaining binding at 1 µM (TTK): 63%
- remaining binding at 1 µM (EGFR(G719C)): 82%
- remaining binding at 1 µM (IRAK3): 100%

Compound: Fc1ccc(-n2cc(CCCCN3CCC4(CC3)OCc3ccccc34)c3ccccc32)cc1 [siramesine]
- sphere forming capacity (PDAC3 cultures): decreased sphere forming capacity
- sphere forming capacity (PDAC1 cultures): decreased sphere forming capacity
